Values joined by “and” are separate entries in the source; they are usually repeats but may differ in a detail not shown here. Identical values can stand only once. Like-named read-outs stand apart in the source and are kept apart here. Each block holds one compound with its values, some of them ahead of it.
Tests used:
[1] = test system: Staphylococcus aureus (BAA-1717); assay: Checkerboard combination / MIC assay with S. aureus BAA-1717 (MRSA); type: cell-based; settings: for MIC: Staphylococcus aureus, ATCC BAA-1717 / BAA-1717, read-out: MIC of antibiotic alone
Protocol: (§1) Colonies were suspended in PBS. The absorbance of each suspension was measured with a spectrophotometer, and then the suspension was adjusted to 1×10^6 CFU/mL. The testing inoculum was prepared within 20 minutes before adding to wells of the test plate. Final cellular density in the checkerboard assays was 5×10^5 CFU/mL.
(§2) The combination effect of antibacterial substances administered together was evaluated by an in vitro checkerboard combination method with Staphylococcus aureus (ATCC 29213) and Staphylococcus aureus (BAA-1717). Ramizol and Chlopam were tested alone in 11 points by two-fold serial titration and in combination with different commercial antibiotics which were tested in a 7-point titration alone and in combination with Ramizol and Chlopam using the checkerboard technique as recommended by the Clinical & Laboratory Standards Institute (CLSI. Methods for Dilution In Antimicrobial Susceptibility Tests for Bacteria That Grow Aerobically; Approved Standard-Eighth Edition. CLSI document M07-A8 (ISBN 1-56238-689-1). Vol. 29 No. 2. Clinical and Laboratory Standards Institute, USA, 2009). The commercial antibiotics were also tested alone. Twenty-four checkerboard tests were performed.
(§3) The starting concentration of Ramizol, Chlopam, and the commercial antibiotics was four fold of the MIC. The testing range for each combination was described in the following summary tables.
(§4) Compound dilutions of Ramizol and Chlopam were performed in 100% DMSO and the final DMSO concentration in all test wells was 2%. Growth control wells also included 2% DMSO. CLSI protocol was followed for medium, inoculum preparation, and endpoint reading. The commercial antibiotics were dissolved and diluted in the CLSI specified diluent. The final inoculum count for each strain was 5×10^5 CFU/mL.
Each test substance was dissolved and diluted in 100% DMSO or specified solvent. Each test substance dilution (2 μL) was added to 96 μL broth CAMHB. CAMHB seeded with S. aureus BAA-1717 at 1×10^6 CFU/mL (100 μL) was then added to the plate to generate a final cell count at 5×10^5 CFU/mL.
(§5) Assay plates were incubated and MIC endpoints were read as described in the MIC assay. FIC (Fraction Inhibitory Concentration) and FIC Index (FICI) values for each test condition and the average of FICI values of all pairwise combinations were calculated to determine if synergy or antagonism existed between the two substances. The FIC index was determined by calculating the sum of the ratios of MICs for both substances. Arithmetically, the FIC Index of a combination of Substance 1 and Substance 2 was defined as following: FICI=Σ[FIC(Substance 1)+FIC(Substance 2)]=[(MIC of Substance 1 in combination/MIC of Substance 1 alone)+(MIC of Substance 2 in combination/MIC of Substance 2 alone)]. Synergy is defined as the FICI (Σ)≤0.5; additivity as FICI (Σ)>0.5 to ≤1; indifference as FICI (Σ)>1 to ≤4; antagonism is defined as the FICI (Σ)>4 (Zinner and Blaser, J. Journal of Antimicrobial Chemotherapy (1986), 17, 1-5; Amin, et al BMC Complementary & Alternative Medicine (2015), 15, 59; Zuo, et al. Molecules (2011), 16, 9819-9826).

[2] = test system: Staphylococcus aureus (ATCC 29213); assay: Checkerboard combination / MIC assay with S. aureus ATCC 29213; type: cell-based; settings: S. aureus ATCC 29213; for MIC: Staphylococcus aureus, read-out: MIC of antibiotic alone
Protocol: as §1, §2, §3, §4
Cefepime, Daptomycin, Linezolid, Mupirocin, Oxacillin and Vancomycin were also tested alone. Each test substance was dissolved and diluted in 100% DMSO or specified solvent. Each test substance dilution (2 μL) was added to 96 μL broth CAMHB. CAMHB seeded with S. aureus ATCC 29213 at 1×10^6 CFU/mL (100 μL) was then added to the plate to generate a final cell count at 5×10^5 CFU/mL.
as §5

[3] = ATCC29213, Table 4, checkerboard series with Chlopam
[4] = ATCC29213, Table 7, checkerboard series with Ramizol

Compound: Cc1onc(-c2ccccc2)c1C(=O)N[C@@H]1C(=O)N2[C@@H]1SC(C)(C)[C@@H]2C(=O)O [Oxacillin]
FICI of combination with Chlopam ([1]; Chlopam 0.001953 μg/mL + labelled antibiotic at MIC of same cell, S. aureus ATCC BAA-1717): 1.0
FICI of combination with Chlopam ([1]; Chlopam 0.003906 μg/mL + labelled antibiotic at MIC of same cell, S. aureus ATCC BAA-1717): 1.0
FICI of combination with Chlopam ([1]; Chlopam 0.0078125 μg/mL + labelled antibiotic at MIC of same cell, S. aureus ATCC BAA-1717): 1.0
FICI of combination with Ramizol ([1]; Ramizol 0.015625 μg/mL + labelled antibiotic at MIC of same cell, S. aureus ATCC BAA-1717): 1.0
FICI of combination with Ramizol ([1]; Ramizol 0.03125 μg/mL + labelled antibiotic at MIC of same cell, S. aureus ATCC BAA-1717): 1.0
FICI of combination with Ramizol ([1]; Ramizol 0.0625 μg/mL + labelled antibiotic at MIC of same cell, S. aureus ATCC BAA-1717): 1.0
mean FICI of combination with Chlopam ([1]; labelled antibiotic + Chlopam, mean of all pairwise combinations, S. aureus ATCC BAA-1717): 1.2
Effect of the combinations with Ramizol (by mean FICI) ([1]; labelled antibiotic + Ramizol, S. aureus BAA-1717): additive effect
mean FICI of combination with Ramizol ([1]; labelled antibiotic + Ramizol, mean of all pairwise combinations, S. aureus ATCC BAA-1717): 0.9
FICI of combination with Chlopam ([2]; Chlopam 0.003906 μg/mL + labelled antibiotic at MIC of same cell): 1.0
MIC of antibiotic in combination with Chlopam ([2]; Chlopam 0.003906 μg/mL): 0.5 µg/mL
FICI of combination with Chlopam ([2]; Chlopam 0.0078125 μg/mL + labelled antibiotic at MIC of same cell): 1.0
MIC of antibiotic in combination with Chlopam ([2]; Chlopam 0.0078125 μg/mL): 0.5 µg/mL
FICI of combination with Chlopam ([2]; Chlopam 0.015625 μg/mL + labelled antibiotic at MIC of same cell): 1.0
MIC of antibiotic in combination with Chlopam ([2]; Chlopam 0.015625 μg/mL): 0.5 µg/mL
FICI of combination with Chlopam ([2]; Chlopam 0.125 μg/mL + labelled antibiotic at MIC of same line): 0.5 and 0.8
MIC of antibiotic in combination with Chlopam ([2]; Chlopam 0.125 μg/mL): 0.125 µg/mL and 0.25 µg/mL
FICI of combination with Chlopam ([2]; Chlopam 0.25 μg/mL + labelled antibiotic at MIC of same cell): 0.8
MIC of antibiotic in combination with Chlopam ([2]; Chlopam 0.25 μg/mL): 0.125 µg/mL
FICI of combination with Chlopam ([2]; Chlopam 0.5 μg/mL + labelled antibiotic at MIC of same cell): 1.0
MIC of antibiotic in combination with Chlopam ([2]; Chlopam 0.5 μg/mL): 0.01563 µg/mL
Effect of individual antibiotic combinations of lower concentrations ([2]; Chlopam and Oxacillin: 0.0125 and 0.125 μg/mL): synergistic effect
FICI of combination with Ramizol ([2]; Ramizol 0.015625 μg/mL + labelled antibiotic at MIC of same cell): 1.0
MIC of antibiotic in combination with Ramizol ([2]; Ramizol 0.015625 μg/mL): 0.5 µg/mL
FICI of combination with Ramizol ([2]; Ramizol 0.03125 μg/mL + labelled antibiotic at MIC of same cell): 1.0
MIC of antibiotic in combination with Ramizol ([2]; Ramizol 0.03125 μg/mL): 0.5 µg/mL
FICI of combination with Ramizol ([2]; Ramizol 0.0625 μg/mL + labelled antibiotic at MIC of same cell): 1.0
MIC of antibiotic in combination with Ramizol ([2]; Ramizol 0.0625 μg/mL): 0.5 µg/mL
FICI of combination with Ramizol ([2]; Ramizol 0.125 μg/mL + labelled antibiotic at MIC of same cell): 1.0
MIC of antibiotic in combination with Ramizol ([2]; Ramizol 0.125 μg/mL): 0.5 µg/mL
FICI of combination with Ramizol ([2]; Ramizol 4 μg/mL + labelled antibiotic at MIC of same cell): 1.0
MIC of antibiotic in combination with Ramizol ([2]; Ramizol 4 μg/mL): 0.016 µg/mL
MIC [2, 3]: 0.5 µg/mL
MIC [2, 4]: 0.5 µg/mL
Effect of the combinations with Chlopam (by mean FICI) ([2]; labelled antibiotic + Chlopam): additive effect
mean FICI of combination with Chlopam ([2]; labelled antibiotic + Chlopam, mean of all pairwise combinations): 1.0
mean FICI of combination with Ramizol ([2]; labelled antibiotic + Ramizol, mean of all pairwise combinations): 1.2

MIC ([1]; Table 4, checkerboard series with Chlopam, S. aureus ATCC BAA-1717): 1 µg/mL
MIC [2, 3]: 0.5 µg/mL
Compound: O=C(O)Cc1ccc(/C=C/c2cc(/C=C/c3ccc(CC(=O)O)cc3)cc(/C=C/c3ccc(CC(=O)O)cc3)c2)cc1 [Chlopam, 2,2′,2″-{[(1E,1′E,1″E)-benzene-1,3,5-triyltris(ethene-2,1-diyl)]tris(benzene-4,1-diyl)}triacetic acid]

MIC ([1]; Table 7, checkerboard series with Ramizol, S. aureus ATCC BAA-1717): 4 µg/mL
MIC [2, 4]: 4 µg/mL
Compound: O=C(O)c1ccc(/C=C/c2cc(/C=C/c3ccc(C(=O)O)cc3)cc(/C=C/c3ccc(C(=O)O)cc3)c2)cc1 [Ramizol, 1,3,5-Tris[(1E)-2′-(4″-benzoic acid)vinyl]benzene]

From patent US20190328691A1, “ANTIBIOTIC THERAPY” (Boulos & Cooper Pharmaceuticals Pty Ltd, priority 2015, published 2019)
